Test results from patent US11076595B2, “1-(n,n-disubstituted carbamoyl) 4-(substituted sulfonyl)triazolin-5-one derivative, 4-(n,n-disubstituted carbamoyl) 1-(substituted sulfonyl)triazolin-5-one derivative, and herbicide containing said derivative as active ingredient” (HOKKO CHEMICAL INDUSTRY CO., LTD., priority 2017, dated 2021).

Tests used:
Assay type in all cases: in vivo
Scirpus juncoides [1] = test: Test Example 12: herbicidal effect test by treatment during growing period in paddy field; details: 120 g/10a; treatment seven days after sowing in flooded paddy pot; assessed 14 days after treatment
Experimental: (§1) This test was performed with two replications per one formulation concentration plot, and 14 days after the formulation treatments, the weed suppression rate (%) was determined according to the following equation (Math. 2). Weed suppression rate (%)=(1−average dry weight (g) of plants in treated plots/average dry weight (g) of plants in untreated plots)×100 [Math. 2]
(§2) A Wagner pot having an area of 1/10000 are was filled with paddy field soil and after adding water, a chemical fertilizer (N:P:K=17:17:17) was mixed, followed by puddling. Thereafter, 30 grains of each of Echinochloa crus-galli, broad-leaved weed (Lindernia pyxidaria, Monochoria vaginalis) and Scirpus juncoides seeds were sown to a depth of 0 to 1 cm. Immediately after the sowing, the pot was flooded, and the depth of water was kept at about 3 cm. The pot was subsequently managed in a glass greenhouse. Seven Days after sowing, an emulsifiable concentrate prepared according to Formulation Example 15 by using the compound shown in Table 10 below was diluted with water, and a predetermined amount of the water-diluted formulation was added dropwise. The application rate of the active ingredient, by conversion, corresponded to 120 g per 10 are. The test was performed with two replications per one formulation concentration plot, and 14 days after the formulation treatments, the weed suppression rate (%) was determined according to the equation (Math. 2).

Lindernia pyxidaria [2] = test: as above; details: 120 g/10a; treatment seven days after sowing in flooded paddy pot; assessed 14 days after treatment
Experimental: as §1, §2

Echinochloa crus-galli [3] = test: as above; details: 120 g/10a; treatment seven days after sowing in flooded paddy pot; assessed 14 days after treatment
Experimental: as §1, §2

Monochoria vaginalis [4] = test: as above; details: 120 g/10a; treatment seven days after sowing in flooded paddy pot; assessed 14 days after treatment
Experimental: as §1, §2

Scirpus juncoides [5] = test: Test Example 11: herbicidal effect test by soil treatment in paddy field; details: 120 g/10a active ingredient, 14 days after treatment
From the text: as §2, with “greenhouse. Just” for “greenhouse. Seven Days”, “after that,” for “after sowing,”, “Table 9” for “Table 10”, “are.” for “are. The test was performed with two replications per one formulation concentration plot, and 14 days after the formulation treatments, the weed suppression rate (%) was determined according to the equation (Math. 2).”
as §1

Lindernia pyxidaria [6] = test: as above; details: 120 g/10a active ingredient, 14 days after treatment
From the text: as §2, with “greenhouse. Just” for “greenhouse. Seven Days”, “after that,” for “after sowing,”, “Table 9” for “Table 10”, “are.” for “are. The test was performed with two replications per one formulation concentration plot, and 14 days after the formulation treatments, the weed suppression rate (%) was determined according to the equation (Math. 2).”
as §1

Echinochloa crus-galli [7] = test: as above; details: 120 g/10a active ingredient, 14 days after treatment
From the text: as §2, with “greenhouse. Just” for “greenhouse. Seven Days”, “after that,” for “after sowing,”, “Table 9” for “Table 10”, “are.” for “are. The test was performed with two replications per one formulation concentration plot, and 14 days after the formulation treatments, the weed suppression rate (%) was determined according to the equation (Math. 2).”
as §1

Monochoria vaginalis [8] = test: as above; details: 120 g/10a active ingredient, 14 days after treatment
From the text: as §2, with “greenhouse. Just” for “greenhouse. Seven Days”, “after that,” for “after sowing,”, “Table 9” for “Table 10”, “are.” for “are. The test was performed with two replications per one formulation concentration plot, and 14 days after the formulation treatments, the weed suppression rate (%) was determined according to the equation (Math. 2).”
as §1

Row | SMILES | Weed suppression rate (%) Scirpus juncoides (Scirpus juncoides [1]) [%] | Weed suppression rate (%) Lindemia pyxidaria (Lindernia pyxidaria [2]) [%] | Weed suppression rate (%) Echinochloa crus-galli (Echinochloa crus-galli [3]) [%] | Weed suppression rate (%) Monochoria vaginalis (Monochoria vaginalis [4]) [%] | Weed suppression rate (%) Scirpus juncoides (Scirpus juncoides [5]) [%] | Weed suppression rate (%) Lindemia pyxidaria (Lindernia pyxidaria [6]) [%] | Weed suppression rate (%) Echinochloa crus-galli (Echinochloa crus-galli [7]) [%] | Weed suppression rate (%) Monochoria vaginalis (Monochoria vaginalis [8]) [%]
1 | CC(C)N(C(=O)n1cnn(S(=O)(=O)c2ccccc2F)c1=O)c1ccc(C(F)(F)F)cc1F [Compound 11-419] | 60 | 60 | 90 | 80 | 70 | 100 | 100 | 60
2 | CC(C)N(C(=O)n1cnn(S(=O)(=O)c2cccc(F)c2)c1=O)c1ccccc1F [Compound 11-428] | 90 | 90 | 90 | 90 | 90 | 90 | 90 | 90
3 | CC(C)N(C(=O)n1cnn(S(=O)(=O)c2cccc(F)c2)c1=O)c1cccc(F)c1F [Compound 11-437] | 100 | 100 | 100 | 100 | 80 | 80 | 100 | 80
4 | CC(C)N(C(=O)n1cnn(S(=O)(=O)c2cccc(F)c2)c1=O)c1ccc(F)c(F)c1F [Compound 11-441] | 100 | 60 | 100 | 80 | 100 | 90 | 100 | 60
5 | CC(C)N(C(=O)n1cnn(S(=O)(=O)c2cccc(F)c2)c1=O)c1c(F)cc(F)cc1F [Compound 11-442] | 80 | 80 | 100 | 90 | 80 | 80 | 100 | 70
6 | CC(C)N(C(=O)n1cnn(S(=O)(=O)c2cccc(F)c2)c1=O)c1c(F)c(F)cc(F)c1F [Compound 11-443] | 100 | 70 | 70 | 70 | 100 | 70 | 80 | 70
7 | CC(C)N(C(=O)n1cnn(S(=O)(=O)c2ccc(F)cc2)c1=O)c1ccccc1F [Compound 11-465] | 90 | 80 | 90 | 80 | 90 | 80 | 90 | 80
8 | CC(C)N(C(=O)n1cnn(S(=O)(=O)c2ccc(F)cc2)c1=O)c1cccc(F)c1F [Compound 11-474] | 100 | 100 | 100 | 90 | 100 | 100 | 100 | 100
9 | CC(C)N(C(=O)n1cnn(S(=O)(=O)c2ccc(F)cc2)c1=O)c1ccc(F)c(F)c1F [Compound 11-478] | 100 | 70 | 100 | 90 | 100 | 100 | 100 | 100
